Data reported in PubChem BioAssay (NCI).
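Briefly, cells in 96-well plates were exposed to five compound concentrations for 48 h, and endpoints were estimated by linear interpolation. GI50 marks 50% less growth. TGI: concentration producing complete growth inhibition.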

Assays:
Test in all cases: growth of human tumour cells (NCI), 48 h
[1] = system: COLO 205 colon
[2] = system: DU-145 prostate
[3] = system: HCC-2998 colon
[4] = system: IGROV1 ovarian
[5] = system: K-562 leukemia
[6] = system: LOX IMVI melanoma
[7] = system: NCI-H522 lung
[8] = system: OVCAR-5 ovarian
[9] = system: PC-3 prostate
[10] = system: U251 CNS

COc1ccc(OC)c(/C=C/C(=O)c2ccc3cc(OC)ccc3c2)c1
GI50 [1]: 6810 nM
TGI [1]: > 14.8 µM
TGI [2]: > 20.7 µM
GI50 [3]: 795 nM
TGI [3]: 2.44 µM
TGI [4]: > 14.5 µM
GI50 [5]: 6460 nM
TGI [5]: > 50 µM
GI50 [6]: 48000 nM
TGI [6]: > 50 µM
TGI [7]: > 14 µM
GI50 [8]: > 11.6 µM
TGI [8]: > 50 µM
GI50 [9]: 6.71 µM
TGI [9]: > 50 µM
GI50 [10]: 7.19 µM
TGI [10]: > 50 µM

C=C1C(OCCO)OC2O[C@]3(C)CCC4[C@H](C)CCC1C24OO3 (some centres not stated)
GI50 [1]: 2870 nM
TGI [1]: 14.3 µM
GI50 [2]: 36300 nM
TGI [2]: > 100 µM
GI50 [3]: > 100000 nM
TGI [3]: > 100 µM
GI50 [4]: 12.3 µM
TGI [4]: 34.9 µM
GI50 [5]: 4160 nM
TGI [5]: > 100 µM
GI50 [6]: 4150 nM
TGI [6]: 19.2 µM
GI50 [7]: 4930 nM
TGI [7]: 19.2 µM
GI50 [8]: 19.6 µM
TGI [8]: > 100 µM
GI50 [9]: 4.11 µM
TGI [9]: > 100 µM
GI50 [10]: 35 µM
TGI [10]: > 100 µM

Cn1c(=O)c2[nH]cnc2n(C)c1=O.[CH2-]C(Cc1cccc2cc(C(=O)O)c(=O)oc12)OC.[Hg+2].[OH-] (configuration not stated)
GI50 [1]: 17100 nM
TGI [1]: 30.9 µM
GI50 [2]: 17000 nM
TGI [2]: 31.6 µM
GI50 [3]: 23000 nM
TGI [3]: 39.2 µM
GI50 [4]: 17.3 µM
TGI [4]: 31.4 µM
GI50 [5]: 18900 nM
TGI [5]: 77.4 µM
GI50 [6]: 16000 nM
TGI [6]: 30.3 µM
GI50 [7]: 15100 nM
TGI [7]: 32.5 µM
GI50 [8]: 18.6 µM
TGI [8]: 32.7 µM
GI50 [9]: 18 µM
TGI [9]: 31.8 µM
GI50 [10]: 16.3 µM
TGI [10]: 29.8 µM

NC(N)=N/N=C/c1ccc(Br)cc1
GI50 [1]: 2990 nM
TGI [1]: 7.21 µM
GI50 [2]: 5500 nM
TGI [2]: 22.1 µM
GI50 [3]: 1140 nM
TGI [3]: 3.16 µM
GI50 [4]: 4.91 µM
TGI [4]: 24.2 µM
GI50 [5]: 3720 nM
TGI [5]: > 100 µM
GI50 [6]: 6450 nM
TGI [6]: 20.8 µM
GI50 [7]: 4390 nM
TGI [7]: 17.7 µM
GI50 [8]: 10.4 µM
TGI [8]: 24.9 µM
GI50 [9]: 4.57 µM
TGI [9]: 24 µM
GI50 [10]: 3.58 µM
TGI [10]: 15.4 µM

O=C1C=C(OCC=C(Cl)Cl)C(=O)c2ccccc21
GI50 [1]: 4390 nM
TGI [1]: 12.1 µM
GI50 [2]: 2800 nM
TGI [2]: 8.94 µM
GI50 [3]: > 100000 nM
TGI [3]: > 100 µM
GI50 [4]: 4.04 µM
TGI [4]: 23.5 µM
GI50 [5]: 1010 nM
TGI [5]: > 23 µM
GI50 [6]: 1090 nM
TGI [6]: 4.35 µM
GI50 [7]: 888 nM
TGI [7]: 6.24 µM
GI50 [8]: 8.92 µM
TGI [8]: > 82.1 µM
GI50 [9]: 5.14 µM
TGI [9]: > 100 µM
GI50 [10]: 2.41 µM
TGI [10]: 13.8 µM

NS(=O)(=O)c1ccc(N=Nc2c(=O)[nH]c3ccc4[nH]cccc4c23)cc1
GI50 [1]: 376 nM
TGI [1]: 0.913 µM
GI50 [2]: 611 nM
TGI [2]: > 7.96 µM
GI50 [3]: 398 nM
TGI [3]: 2 µM
GI50 [4]: 0.789 µM
TGI [4]: > 25 µM
GI50 [5]: 721 nM
TGI [5]: > 25 µM
GI50 [6]: 304 nM
TGI [6]: > 25 µM
GI50 [7]: 197 nM
TGI [7]: 0.818 µM
GI50 [8]: 1.02 µM
TGI [8]: > 25 µM
GI50 [9]: 0.583 µM
TGI [9]: > 25 µM
GI50 [10]: 0.313 µM
TGI [10]: > 25 µM

CN1CCN(Cc2ccc(NC(=O)c3cncc(C#Cc4ncc5ccccn45)c3)cc2C(F)(F)F)CC1
GI50 [1]: 561 nM
TGI [1]: 1.39 µM
GI50 [2]: 1350 nM
TGI [2]: 4.51 µM
GI50 [3]: 3370 nM
TGI [3]: 6.99 µM
GI50 [4]: 0.892 µM
TGI [4]: 4.07 µM
GI50 [5]: 2.5 nM
TGI [5]: 2.91 µM
GI50 [6]: 1270 nM
TGI [6]: 4.55 µM
GI50 [7]: 1430 nM
TGI [7]: 5.58 µM
GI50 [8]: 1.76 µM
TGI [8]: 8.41 µM
GI50 [9]: 1.27 µM
TGI [9]: 8.65 µM
GI50 [10]: 2.89 µM
TGI [10]: 6.39 µM

COc1cc[nH]c1/C=C1\C(=O)Nc2ccc([N+](=O)[O-])c(N3CC[C@@H](O)C3)c21
GI50 [1]: 135 nM
TGI [1]: 0.688 µM
GI50 [2]: 177 nM
TGI [2]: 2.83 µM
GI50 [3]: 544 nM
TGI [3]: 2 µM
GI50 [4]: 0.467 µM
TGI [4]: 4.27 µM
GI50 [5]: 577 nM
TGI [5]: 7.57 µM
GI50 [6]: 92.3 nM
TGI [6]: 1.41 µM
GI50 [7]: 393 nM
TGI [7]: 1.23 µM
GI50 [8]: 0.258 µM
TGI [8]: 3.97 µM
GI50 [9]: 0.235 µM
TGI [9]: 2.15 µM
GI50 [10]: 0.172 µM
TGI [10]: 2.07 µM
